Test results published in US10792324B2, “Compositions and methods for the treatment of orthopedic ailments” (K.L.R.M., LLC, priority 2016, dated 2020).

Tests used:
[1] = tested on: femur fracture; experiment: Callus development analysis via qCT after femur fracture; type: in vivo, rat; settings: osteotomy site
Protocol: As briefly mentioned above, efficacy of the present nutraceutical composition was tested. Fifty-eight male Sprague-Dawley rats (10 weeks old, body weight (BW): 344±11 g) were used for this study, which was approved by the Institutional Animal Care and Use Committee of the Charles R. Drew University of Medicine and Science. The rats were housed for one week prior to experimental procedures to permit acclimatization and then randomly assigned to three groups. The control group (n=19 rats) received 0.2 ml of vehicle composed of 10% dimethyl sulfoxide (DMSO), peanut butter and water by retro-lingual administration. The tadalafil group (n=20 rats) was given a daily oral dose of 2.0 mg/kg body weight (BW) of the PDE5 inhibitor, tadalafil (Eli Lilly, Indianapolis, Ind.), mixed with vehicle. […] The COMB-4 group (Naturex, […]=19 rats), that is, the group receiving the nutraceutical composition in accordance with the present invention, received a combination of Muira puama (45 mg/kg body weight BW), Paullinia cupana (45 mg/kg BW), ginger (45 mg/kg BW) and L-citrulline (133 mg/kg BW) dissolved in vehicle. The appropriate rat dose of each of the four components of COMB-4 was calculated based on the equivalent recommended human daily dose as previously reported. See International Patent Publication Number WO 2012/067745 A 1 for more details on the ingredients in COMB-4, ranges of ingredients, and the beneficial effects thereof in treating Erectile Dysfunction and cardiovascular disease. All animals received the vehicle only for the three days prior to surgery to get the animals adapted to the taste, and began receiving either their respectively assigned control or experimental daily dose of tadalafil or COMB-4 on the same day right after the fracture (day 0). All surgeries were performed by one orthopedic surgeon who was blinded to the rats' experimental assignment. Anesthesia was induced with 3% isoflurane and maintained with 2.5% isoflurane throughout the surgery. All rats received subcutaneous injections of buprenorphine 0.05 mg/kg body weight for pre- and post-operative pain control. Each rat then underwent a unilateral femur fracture with internal fixation. […] The underlying fascia was incised at the medial patellar tendon border and the patella was dislocated laterally. The trochlea was opened with a 1.0 mm drill bit and the intramedullary canal and greater trochanter were […] 21-3 gauge hypodermic needle. The intramedullary canal was sequentially […] 18-gauge needle, and the epicondyle was further opened with a 16-gauge needle. The femoral shaft was accessed by sweeping the vastus medialis laterally. A cat claw scissors (Petco, San Diego, Calif.) placed at the junction of the middle and distal one-third of the femoral shaft was used to make a transverse fracture. A randomizer table was used to determine laterality of the osteotomy. While maintaining control of both fracture fragments, a titanium compression intramedullary screw ([…], Davos, Switzerland) was applied in a retrograde manner while directly visualizing the fracture reduction. […] The fascia and skin were closed in two layers utilizing 4-0 Vicryl (Ethicon Inc., Somerville, N.J.) and VetBond skin glue (3M, St. Paul, Minn.). A small amount of triple antibiotic ointment ([…].) was applied to the skin. Range of motion at the hip and knee was performed to ensure there was no penetration of the screw proximally and that the patella was adequately tracking. Unprotected weight bearing was permitted immediately postoperatively, and on day 14, 5 rats from each group were euthanized using inhalational CO2 and femora were harvested for qCT (quantitative computerized tomography) and histological evaluation. On day 42, fifteen (15) rats from each group were euthanized for qCT and histological evaluation. The remaining rats were euthanized for biomechanical testing. Mineral Content and Callus Volume. […]

[2] = tested on: femur fracture; experiment: Biomechanical evaluation (torsion to failure) of healing femur fracture; type: in vivo, rat
Protocol: As briefly mentioned above, efficacy of the present nutraceutical composition was tested. Fifty-eight male Sprague-Dawley rats (10 weeks old, body weight (BW): 344±11 g) were used for this study, which was approved by the Institutional Animal Care and Use Committee of the Charles R. Drew University of Medicine and Science. The rats were housed for one week prior to experimental procedures to permit acclimatization and then randomly assigned to three groups. The control group (n=19 rats) received 0.2 ml of vehicle composed of 10% dimethyl sulfoxide (DMSO), peanut butter and water by retro-lingual administration. The tadalafil group (n=20 rats) was given a daily oral dose of 2.0 mg/kg body weight (BW) of the PDE5 inhibitor, tadalafil (Eli Lilly, Indianapolis, Ind.), mixed with vehicle. […] The COMB-4 group (Naturex, […]=19 rats), that is, the group receiving the nutraceutical composition in accordance with the present invention, received a combination of Muira puama (45 mg/kg body weight BW), Paullinia cupana (45 mg/kg BW), ginger (45 mg/kg BW) and L-citrulline (133 mg/kg BW) dissolved in vehicle. The appropriate rat dose of each of the four components of COMB-4 was calculated based on the equivalent recommended human daily dose as previously reported. See International Patent Publication Number WO 2012/067745 A 1 for more details on the ingredients in COMB-4, ranges of ingredients, and the beneficial effects thereof in treating Erectile Dysfunction and cardiovascular disease. All animals received the vehicle only for the three days prior to surgery to get the animals adapted to the taste, and began receiving either their respectively assigned control or experimental daily dose of tadalafil or COMB-4 on the same day right after the fracture (day 0). All surgeries were performed by one orthopedic surgeon who was blinded to the rats' experimental assignment. Anesthesia was induced with 3% isoflurane and maintained with 2.5% isoflurane throughout the surgery. All rats received subcutaneous injections of buprenorphine 0.05 mg/kg body weight for pre- and post-operative pain control. Each rat then underwent a unilateral femur fracture with internal fixation. […] The underlying fascia was incised at the medial patellar tendon border and the patella was dislocated laterally. The trochlea was opened with a 1.0 mm drill bit and the intramedullary canal and greater trochanter were […] 21-3 gauge hypodermic needle. The intramedullary canal was sequentially […] 18-gauge needle, and the epicondyle was further opened with a 16-gauge needle. The femoral shaft was accessed by sweeping the vastus medialis laterally. A cat claw scissors (Petco, San Diego, Calif.) placed at the junction of the middle and distal one-third of the femoral shaft was used to make a transverse fracture. A randomizer table was used to determine laterality of the osteotomy. While maintaining control of both fracture fragments, a titanium compression intramedullary screw ([…], Davos, Switzerland) was applied in a retrograde manner while directly visualizing the fracture reduction. […] The fascia and skin were closed in two layers utilizing 4-0 Vicryl (Ethicon Inc., Somerville, N.J.) and VetBond skin glue (3M, St. Paul, Minn.). […] Unprotected weight bearing was permitted immediately postoperatively, and on day 14, 5 rats from each group were euthanized using inhalational CO2 and femora were harvested for qCT (quantitative computerized tomography) and histological evaluation. […]

[3] = Newly formed Total Callus (>299 mg/cm^3), Day 14, mean ± S.D.
[4] = Newly formed Total Callus (>299 mg/cm^3), Day 42, mean ± S.D.
[5] = Newly formed Total Callus (>500 mg/cm^3), Day 14, mean ± S.D.
[6] = Newly formed Total Callus (>500 mg/cm^3), Day 42, mean ± S.D.
[7] = day 42, relative to control group
[8] = day 42, torsion test, mean ± S.D.

SMILES: CN1CC(=O)N2[C@H](c3ccc4c(c3)OCO4)c3[nH]c4ccccc4c3C[C@@H]2C1=O [Tadalafil, tadalafil]
- Bone Density [1, 3]: 458.4 ± 29.2 mg/mL
- Callus Volume [1, 3]: 44.9 ± 11.7 mm^3
- Mineral Content [1, 3]: 20.8 ± 6.3 mg
- Bone Density [1, 4]: 510.0 ± 18.9 mg/mL
- Callus Volume [1, 4]: 66.3 ± 22.3 mm^3
- Mineral Content [1, 4]: 34.1 ± 12.7 mg
- Callus Volume [1, 5]: 16.4 ± 4.7 mm^3
- Mineral Content [1, 5]: 11.0 ± 3.8 mg
- Callus Volume [1, 6]: 35.6 ± 12.6 mm^3
- Mineral Content [1, 6]: 24.1 ± 8.3 mg
- Bone Density ([1]; Newly formed Total Callus, Day 14, mean ± S.D.): 665.0 ± 2.0 mg/mL
- Bone Density ([1]; Newly formed Total Callus, Day 42, mean ± S.D.): 697.2 ± 12.4 mg/mL
- higher maximum strength (maximum torque) than control group [2, 7]: 15%
- higher stiffness than control group [2, 7]: 28%
- Maximum Torque [2, 8]: 326.8 ± 138.0 Nmm
- Torsional Stiffness [2, 8]: 59.9 ± 31.1 Nmm/Deg.
- Fracture Repair Stage (I, II, III or IV) ([2]; day 42, torsion test, mean ± S.D., I = 1, II = 2, III = 3, IV = 4): 2.4 ± 0.5
